In patent US20060084691A1, “Combined treatment with bortezomib and an epidermal growth factor receptor kinase inhibitor” (priority 2004, published 2006):
Counter-ions that a name gives are not always drawn.

Assays:
Assay type in all cases: cell-based, human
A549 = test: MTT cytotoxicity assay, A549; conditions: A549, 72 h
[1] = test system: EGF-induced EGFR-phosphorylation; test: EGF-induced EGFR phosphorylation in sensitive and resistant cells; conditions: both sensitive and resistant cells
Procedure: Cells were scraped from the culture, washed twice with PBS, and then suspended in 60-100 μL of Western blot lysis buffer containing 50 mM Tris-HCl (pH 7.5), 250 mM NaCl, 1 mM EDTA, 1 mM EGTA, 1 mM NaF, 1 mM phenylmethylsulfonyl fluoride, 1 mM DTT, 20 μg/mL leupeptin, 20 μg/mL aprotinin, 0.1% Triton X-100 and 1% SDS at 0-4° C. for 15 min. […] After electrophoresis, protein blots were transferred to a nitrocellulose membrane. The membrane was blocked with 5% nonfat milk powder in TBST and incubated overnight with the corresponding primary antibodies at 4° C. After washing three times with TBST, the membrane was incubated at room temperature for 1 h with horseradish peroxidase-conjugated secondary antibody diluted with TBST (1:1000). The detected protein signals were visualized by an enchanced cheiluminescence reaction system (Amersham, Arlington Heights, Ill.).

H358 = test: MTT cytotoxicity assay, H358; conditions: H358, 72 h
H322 = test: MTT cytotoxicity assay, H322; conditions: H322, 72 h
H1299 = test: MTT cytotoxicity assay, H1299; conditions: H1299, 72 h
[2] = test system: ubiquitinated p53 in A549 cells; test: p53 expression by western blot; conditions: A549 cells with wild type p53, single agent
Procedure: Cells were scraped from the culture, washed twice with PBS, and then suspended in 60-100 μL of Western blot lysis buffer containing 50 mM Tris-HCl (pH 7.5), 250 mM NaCl, 1 mM EDTA, 1 mM EGTA, 1 mM NaF, 1 mM phenylmethylsulfonyl fluoride, 1 mM DTT, 20 μg/mL leupeptin, 20 μg/mL aprotinin, 0.1% Triton X-100 and 1% SDS at 0-4° C. for 15 min. After centrifugation at 1500× g for 10 min at 0° C., the supernatants were collected, and the proteins were separated on 10% SDS-PAGE. After electrophoresis, protein blots were transferred to a nitrocellulose membrane. The membrane was blocked with 5% nonfat milk powder in TBST and incubated overnight with the corresponding primary antibodies at 4° C. After washing three times with TBST, the membrane was incubated at room temperature for 1 h with horseradish peroxidase-conjugated secondary antibody diluted with TBST (1:1000). The detected protein signals were visualized by an enchanced cheiluminescence reaction system (Amersham, Arlington Heights, Ill.).
A549 cells with wild type p53 were exposed to either bortezomib or erlotinib alone, or in combination concomitantly or sequentially 24-hr apart, and p53 expression was assessed by western blot.

| Structure (SMILES) | Sensitivity (cytotoxicity) (A549) | EGF-induced EGFR-phosphorylation [1] | Sensitivity (cytotoxicity) (H358) | Sensitivity (cytotoxicity) (H322) | Sensitivity (cytotoxicity) (H1299) | p53 expression (western blot) [2] |
| --- | --- | --- | --- | --- | --- | --- |
| C#Cc1cccc(Nc2ncnc3cc(OCCOC)c(OCCOC)cc23)c1 [erlotinib HCl, [6,7-bis(2-methoxyethoxy)-4-quinazolin-4-yl]-(3-ethynylphenyl) amine] | resistant | inhibits | sensitive | sensitive | resistant | – |
| CC(C)C[C@H](NC(=O)[C@H](Cc1ccccc1)NC(=O)c1cnccn1)B(O)O [bortezomib] | – | – | – | – | – | accumulation of ubiquitinated p53 |
